Measurements reported in ChEMBL document CHEMBL1132391, “The sulfonimidamide as a novel transition state analog for aspartic acid and metallo proteases” (Bioorg Med Chem Lett, 1999).

How the values were obtained:
[1] = (§1) Tested for the inhibitory activity against Carboxypeptidase A (mixture of diastereomers)
[2] = target: T1, Human immunodeficiency virus type 1 protease (Human immunodeficiency virus 1, UniProt Q72874); assay: Tested for the inhibitory activity against HIV protease
Pepsin A [3] = target: T2, Pepsin A (Sus scrofa, UniProt P00791); assay: Tested for the inhibitory activity against pepsin
T2 sequence (P00791 whole entry): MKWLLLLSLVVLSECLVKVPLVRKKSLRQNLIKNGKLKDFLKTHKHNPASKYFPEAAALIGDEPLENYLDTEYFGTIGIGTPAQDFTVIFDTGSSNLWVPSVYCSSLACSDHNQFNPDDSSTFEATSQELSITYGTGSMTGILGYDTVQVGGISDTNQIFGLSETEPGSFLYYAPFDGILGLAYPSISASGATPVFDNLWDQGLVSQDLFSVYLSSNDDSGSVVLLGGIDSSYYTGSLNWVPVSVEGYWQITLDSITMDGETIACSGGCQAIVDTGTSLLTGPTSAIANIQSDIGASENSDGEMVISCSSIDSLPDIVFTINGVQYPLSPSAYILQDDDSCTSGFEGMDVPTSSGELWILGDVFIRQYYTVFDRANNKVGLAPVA

[4] = target: T1, Human immunodeficiency virus type 1 protease; assay: Tested for the inhibitory activity against HIV protease (First pure eluting diastereomer)
Pepsin A [5] = target: T2, Pepsin A; assay: Tested for the inhibitory activity against pepsin (Second pure eluting diastereomer )
[6] = target: T1, Human immunodeficiency virus type 1 protease; assay: Tested for the inhibitory activity against HIV protease (Second pure eluting diastereomer )
Pepsin A [7] = target: T2, Pepsin A; assay: Tested for the inhibitory activity against pepsin (First pure eluting diastereomer)
[8] = as §1; remark: listed apart in the source

Row | Structure (SMILES) | IC50 [2] | IC50 (Pepsin A [3]) | also measured
1 | N[S+]([O-])(CCc1ccccc1)=N[C@@H](Cc1ccccc1)C(=O)O (some centres not stated) |  |  | IC50 [1]: 20 µM
2 | N[S+]([O-])(CCc1ccccc1)=NCC(=O)OCc1ccccc1 (configuration not stated) | > 5000 µM | 700 µM | 
3 | COC(=O)[C@H](Cc1ccccc1)N=[S+](N)([O-])CCc1ccccc1 (some centres not stated) |  |  | IC50 [4]: 1000 µM; IC50 (Pepsin A [5]): 700 µM; IC50 [6]: > 5000 µM; IC50 (Pepsin A [7]): 700 µM
4 | O=C(CCc1ccccc1)N[C@@H](Cc1ccccc1)C(=O)O |  |  | Km [8]: 2.1

Continued, in another order:

Row | IC50 [2] | IC50 (Pepsin A [3]) | Structure (SMILES) | also measured
5 | > 3000 µM | > 3000 µM | O=C(CCc1ccccc1)NCC(=O)OCc1ccccc1 | 
6 | > 3000 µM | > 3000 µM | COC(=O)[C@H](Cc1ccccc1)NC(=O)CCc1ccccc1 | 
